Where two headings read alike, the source gives them in different places.

In data set [1] the test system is severely growth restricted fetus (fetal IUGR). Put plainly: Clinical case study: severe fetal IUGR treated with maternal IV hypertonic D-glucose bolus. It counts as in vivo, human. From the text:
At the outset, it is relevant to describe a clinical case study of successfully treating a severe case of fetal IUGR, during the years 1983-84, by the Author Inventor as a practicing ob/gyn. in India, as it is the basis for this writing of significant depth that aided the author inventor decades later to fully comprehend what was once successfully treated, but was only incompletely understood at that time.
They were well nourished and was from good socioeconomic background, and there were no obvious etiological factors, that could be accounted for the identified fetal IUGR. After monitoring the growth of the fetus by assessing fundal height (a clinical norm of fetal measure in the past) for 3-4 more weeks, it was confirmed that the uterine size was not progressing, and that the patient had severely growth restricted fetus. […] The patient had more frequent pre-natal follow ups, and the treatment was diligently continued with increments, as also the patient was admirably cooperative. Nearing term, they were delivered by elective cesarean section.
The observed fetal growth restriction was undoubtedly severe, but with mere hypertonic intravenous D-glucose treatment and no other (except for standard doses of prenatal vitamins and minerals), the […] delivered an AGA baby, who obviously had caught up with standard growth curve, as though glucose supplement alone, and nothing else was needed.

For data set [2] the following is noted: 25 G IV bolus over 3-5 minutes, cited from earlier work.
For another data set, the system named is rabbit fetus. To be noted: cited from earlier work.
The test system of data set [3] is Human Umbilical Vessel Endothelial cells (HUVEC). The note with it: cited from earlier work.
A further data set has as its system all tissues types. The note with it: cited from earlier work.

Consider `O=C[C@H](O)[C@@H](O)[C@H](O)[C@H](O)CO` [D-glucose], for which the fetal growth response result in data set [1] (20% IV bolus 50 cc twice daily to the parent, observed in 2-3 weeks) was “undoubted and immediate catch up of fetal growth”. In addition, the “birth weight for gestational age” value in data set [1] (at delivery nearing term) is “appropriate for the gestational age (AGA)”. Besides, the “Apgar score of the baby” value in data set [1] (elective cesarean nearing term after continued treatment with increments) was found to be 10. Further, the “adverse effects in the mother due to induced maternal hyperglycemia” value in data set [1] (throughout gestation) is reported as “No adverse effects”. Further, the “blood glucose level (peak)” value in data set [2] (at 15 minutes) is 175 mg %. In addition, the blood glucose level in data set [2] (at 30 minutes) is given as 125 mg %; in data set [2] (at 1 hour) it was 75 mg %; in data set [2] (during the second hour) it was 70 mg %. In the data set on rabbit fetus (Flake et al, natural runt rabbit fetus, solutions alone or in combination), the “reversal of growth restriction” value is “did not reverse growth restriction”. For the same compound, the fetal weight entry in the data set with rabbit fetus (Mulvihill et al 1985, pregnant rabbit models, transamniotic) is “increase in fetal weight”. Besides, the CGMP accumulation result in data set [3] is reported as “increased”. In addition, in data set [3], the L-Arginine transport result is on record as “increased”.

Take `NCCCC[C@@H](N)C(=O)O` [D-lysine]: the neovascular growth result in the data set on all tissues types (all tissues types) is “induce neovascular growth”.

On to `NCCCC[C@H](N)C(=O)O` [monomeric lysine, lysine], for which, in the data set with all tissues types (compared to other physicochemical means), the “biomass (cell population) expansion” value is “expand biomass (cell population) at the least possible time”.

As to insulin, in data set [3], the CGMP accumulation result is recorded as “increased” and the L-Arginine transport entry is given as “increased”.

(Values after patent US9555052B2, “Intrauterine fetal growth restriction—the biochemical rationale of treatment modalities including extraperitoneal transamniotic fetal supplements” (priority 2003, dated 2017).)
